The results in this text go back to ChEMBL document CHEMBL5620374, “Synthesis and bioevaluation of novel stilbene-based derivatives as tubulin/HDAC dual-target inhibitors with potent antitumor activities in vitro and in vivo” (Eur J Med Chem, 2023).

The structures appear in SMILES notation. Activity calls are given as the source filed them. The calls are words filed in the database; no cut-off is given here.

Data set [1] concerns K562. The experiment in a line: Induction of apoptosis in human K562 cells assessed as necrotic cells at 8 nM incubated for 48 hrs by Annexin V/PI staining based flow cytometry (reference value: 2.56 +/- 0.22 %). It is filed as functional. In general terms: In flow cytometry, cells or beads pass a laser one at a time.
Data set [2] deals with T1, Protein deacetylase HDAC6 (Homo sapiens) (UniProt Q9UBN7).
T1 sequence (whole entry): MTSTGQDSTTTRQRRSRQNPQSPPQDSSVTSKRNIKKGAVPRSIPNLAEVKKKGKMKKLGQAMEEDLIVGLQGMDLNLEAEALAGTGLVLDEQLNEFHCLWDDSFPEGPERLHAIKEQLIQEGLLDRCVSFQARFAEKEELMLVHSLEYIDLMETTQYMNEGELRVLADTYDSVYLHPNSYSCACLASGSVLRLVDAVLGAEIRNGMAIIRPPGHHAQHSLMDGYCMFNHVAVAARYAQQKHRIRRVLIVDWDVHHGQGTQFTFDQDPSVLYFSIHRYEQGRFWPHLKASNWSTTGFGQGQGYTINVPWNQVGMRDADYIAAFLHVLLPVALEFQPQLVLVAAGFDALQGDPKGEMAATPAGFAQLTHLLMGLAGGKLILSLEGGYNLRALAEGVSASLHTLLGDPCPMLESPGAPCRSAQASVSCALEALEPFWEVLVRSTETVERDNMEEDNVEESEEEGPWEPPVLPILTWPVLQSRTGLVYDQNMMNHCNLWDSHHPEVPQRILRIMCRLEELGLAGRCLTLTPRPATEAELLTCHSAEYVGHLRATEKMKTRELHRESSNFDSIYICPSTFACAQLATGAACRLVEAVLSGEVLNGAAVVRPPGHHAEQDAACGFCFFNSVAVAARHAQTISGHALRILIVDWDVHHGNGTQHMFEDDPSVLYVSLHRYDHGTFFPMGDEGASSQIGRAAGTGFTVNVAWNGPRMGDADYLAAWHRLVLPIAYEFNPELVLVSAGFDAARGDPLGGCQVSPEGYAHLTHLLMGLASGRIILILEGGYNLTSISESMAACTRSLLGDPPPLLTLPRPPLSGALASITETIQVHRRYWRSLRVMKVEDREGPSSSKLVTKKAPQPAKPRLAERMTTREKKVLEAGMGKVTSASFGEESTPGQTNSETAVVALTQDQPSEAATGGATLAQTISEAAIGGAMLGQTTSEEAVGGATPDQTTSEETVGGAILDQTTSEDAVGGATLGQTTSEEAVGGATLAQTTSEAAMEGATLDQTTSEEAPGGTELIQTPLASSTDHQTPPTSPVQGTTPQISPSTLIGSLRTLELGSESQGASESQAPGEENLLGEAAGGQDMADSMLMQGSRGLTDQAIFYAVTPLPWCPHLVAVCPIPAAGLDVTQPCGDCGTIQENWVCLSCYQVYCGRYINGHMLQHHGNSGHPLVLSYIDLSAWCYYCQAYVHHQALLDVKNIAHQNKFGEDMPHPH
The experiment in a line: Inhibition of HDAC6 in human K562 cells assessed as increase in Acetyl-alpha-tubulin level at 0.01 to 1 uM incubated for 24 hrs by Western blot analysis. It is filed as cell-based. The following applies: dose 0.01-1 µM.

Data set [3] relates to HUVEC. The experiment in a line: Inhibition of tube formation in HUVEC cells at 8 nM incubated for 6 hrs by inverted microscopy. In kind it is functional, cell-based. The following applies: Homo sapiens.
The target of another data set is Histone deacetylase 3 (Homo sapiens, UniProt O15379). Description: Inhibition of HDAC3 in human K562 cells assessed as increase in Acetyl-histone H3 level at 0.01 to 1 uM incubated for 24 hrs by Western blot analysis. In kind it is cell-based. Particulars: dose 0.01-1 µM. (A western blot detects proteins with antibodies after separation by electrophoresis.)
For data set [4], the target named is T2, Histone deacetylase 1 (Homo sapiens, UniProt Q13547). The experiment in a line: Inhibition of HDAC1 in human K562 cells assessed as increase in Acetyl-histone H3 level at 0.01 to 1 uM incubated for 24 hrs by Western blot analysis. In kind it is cell-based. The following applies: dose 0.01-1 µM.
The test system of data set [5] is K562. Description: Inhibition of mitochondrial membrane potential in human K562 cells assessed as red fluorescence intensity at 2 nM incubated for 48 hrs by JC-1 staining based flow cytometry (reference value: 93.36 +/- 0.21 %). It is filed as functional.
Another data set deals with Histone deacetylase 2 (Homo sapiens, UniProt Q92769). Description: Inhibition of HDAC2 derived from human HeLa cell extract using Ac-Leu-Gly-Lys (Ac)-AMC as substrate by fluorescence based assay.
In data set [6] the test system is K562. Description: Induction of apoptosis in human K562 cells assessed as decrease in Bcl-2 level incubated for 24 hrs by Western blot analysis. In kind it is functional, cell-based. The following applies: dose 2-8 nM.
Data set [7] has as its system K562. Description: Induction of ROS generation in human K562 cells assessed as DCF-positive cells at 2 nM incubated for 48 hrs by DCF-DA probe based flow cytometry (reference value: 3.87 %). In kind it is functional.
Data set [8] concerns K562. The experiment in a line: Induction of cell cycle arrest at G2 phase in human K562 cells at 4 nM incubated for 48 hrs by PI staining based flow cytometry (Rvb =15.36 +/- 0.46 %). It is filed as functional.
For data set [9], the system named is K562. Description: Inhibition of mitochondrial membrane potential in human K562 cells assessed as green fluorescence intensity at 4 nM incubated for 48 hrs by JC-1 staining based flow cytometry (reference value: 6.63 +/- 0.27 %). In kind it is functional.
The next data set concerns MCF7. Description: cells. The following applies: Homo sapiens, MCF7, 72 h.
Data set [10] concerns the target T2, Histone deacetylase 1. Description: Inhibition of HDAC1 derived from human HeLa cell extract using Ac-Leu-Gly-Lys (Ac)-AMC as substrate by fluorescence based assay. In kind it is cell-free.
Data set [11] deals with K562. Description: Induction of ROS generation in human K562 cells assessed as DCF-positive cells at 8 nM incubated for 48 hrs by DCF-DA probe based flow cytometry (reference value: 3.87 %). In kind it is functional.
Data set [12] concerns K562. Description: Induction of apoptosis in human K562 cells assessed as early apoptotic cells at 8 nM incubated for 48 hrs by Annexin V/PI staining based flow cytometry (reference value: 1.55 +/- 0.21 %). It is filed as functional.
The subject of data set [13] is HUVEC. The experiment in a line: Antivascular activity against HUVEC cells assessed as decrease in cell migration at 8 nM incubated for 24 hrs by wound healing assay. In kind it is functional, cell-based. Particulars: Homo sapiens.
The subject of a further data set is MDA-MB-231. The experiment in a line: Inhibition of cell migration in human MDA-MB-231 cells incubated for 48 hrs by crystal violet staining based transwell assay. In kind it is functional. The following applies: dose 2-8 nM.
For data set [14], the target named is T3, Protein deacetylase HDAC6 (Homo sapiens, UniProt Q9UBN7).
T3 sequence (Q9UBN7 whole entry): T1 sequence (whole entry)
The experiment in a line: Inhibition of HDAC6 derived from human HeLa cell extract using Ac-Leu-Gly-Lys (Ac)-AMC as substrate by fluorescence based assay. It is filed as cell-free.

Data set [15] concerns HUVEC. The experiment in a line: Inhibition of tube formation in HUVEC cells incubated for 24 hrs by inverted microscopy. In kind it is functional, cell-based. Particulars: Homo sapiens.
The subject of data set [16] is K562. The experiment in a line: Induction of cell cycle arrest at G2 phase in human K562 cells at 8 nM incubated for 48 hrs by PI staining based flow cytometry (Rvb =15.36 +/- 0.46 %). It is filed as functional.
In data set [17] the test system is K562. Description: Induction of apoptosis in human K562 cells assessed as necrotic cells at 2 nM incubated for 48 hrs by Annexin V/PI staining based flow cytometry (reference value: 2.56 +/- 0.22 %). In kind it is functional.
Data set [18] in a line: Toxicity in ICR mouse allografted with mouse H22 cells assessed as body weight reduction at 10 to 20 mg/kg, iv qd for 17 days consecutively. It is filed as organism-based. Particulars: in vivo, dose 10-20 mg/kg, time 17 day.

T2 sequence (Q13547 whole entry): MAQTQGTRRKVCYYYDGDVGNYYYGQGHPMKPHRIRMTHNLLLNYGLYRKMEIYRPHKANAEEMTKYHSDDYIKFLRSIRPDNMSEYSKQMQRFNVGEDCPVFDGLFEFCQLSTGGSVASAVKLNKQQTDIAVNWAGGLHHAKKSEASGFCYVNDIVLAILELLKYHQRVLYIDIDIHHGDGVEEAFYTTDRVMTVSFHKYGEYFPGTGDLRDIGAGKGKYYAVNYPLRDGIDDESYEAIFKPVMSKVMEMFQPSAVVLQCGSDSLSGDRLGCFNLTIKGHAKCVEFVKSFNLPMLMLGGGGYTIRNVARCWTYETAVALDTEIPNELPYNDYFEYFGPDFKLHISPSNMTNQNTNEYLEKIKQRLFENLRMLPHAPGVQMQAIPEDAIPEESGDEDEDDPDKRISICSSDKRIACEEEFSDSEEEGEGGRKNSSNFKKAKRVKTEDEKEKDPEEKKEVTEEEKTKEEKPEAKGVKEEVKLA
Chain of Histone deacetylase 3 (O15379 whole entry): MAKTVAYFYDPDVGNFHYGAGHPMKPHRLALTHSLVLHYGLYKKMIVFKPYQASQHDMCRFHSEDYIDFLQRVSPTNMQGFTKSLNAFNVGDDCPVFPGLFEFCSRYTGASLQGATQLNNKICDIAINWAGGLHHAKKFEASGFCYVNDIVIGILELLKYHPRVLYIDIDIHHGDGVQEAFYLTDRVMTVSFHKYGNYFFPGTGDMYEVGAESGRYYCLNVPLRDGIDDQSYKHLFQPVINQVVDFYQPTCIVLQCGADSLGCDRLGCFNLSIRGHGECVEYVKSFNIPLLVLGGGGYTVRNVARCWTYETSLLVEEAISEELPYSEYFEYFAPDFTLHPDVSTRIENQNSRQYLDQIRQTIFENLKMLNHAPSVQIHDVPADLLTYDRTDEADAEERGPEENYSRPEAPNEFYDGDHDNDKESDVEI
Chain of Histone deacetylase 2 (Q92769 whole entry): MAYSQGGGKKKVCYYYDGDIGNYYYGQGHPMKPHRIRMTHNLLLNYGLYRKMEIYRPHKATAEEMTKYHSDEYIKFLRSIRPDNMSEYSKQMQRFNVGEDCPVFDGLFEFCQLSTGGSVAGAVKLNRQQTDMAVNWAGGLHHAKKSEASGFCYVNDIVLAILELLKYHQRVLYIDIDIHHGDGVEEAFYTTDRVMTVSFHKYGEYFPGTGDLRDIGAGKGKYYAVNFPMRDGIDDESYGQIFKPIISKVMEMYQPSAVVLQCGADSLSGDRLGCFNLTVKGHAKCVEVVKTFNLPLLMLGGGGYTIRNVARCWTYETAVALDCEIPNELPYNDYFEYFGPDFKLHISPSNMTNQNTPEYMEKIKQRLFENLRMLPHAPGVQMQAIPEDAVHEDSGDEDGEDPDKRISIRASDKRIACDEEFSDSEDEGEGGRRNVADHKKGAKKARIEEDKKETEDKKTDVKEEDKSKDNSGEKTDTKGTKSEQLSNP
Description for MCF7: Antiproliferative activity against human MCF7 cells incubated for 72 hrs by MTT assay

Take `C=C(c1ccc(OC)c(OC(F)C(=O)NO)c1)c1cc(C)nc2ccccc12` (configuration not stated): the Activity with K562 [1] is 3.7%; with K562 [6], “Dose-Dependent Effect”; in the data set with K562 [7], 16.44%; in the data set with K562 [8] it was 23.38%; with K562 [11] it was 42.67%; with K562 [12] it was 18.11%. The Activity is recorded as 27.87% in the data set on K562 [16], 0.36% in the data set with K562 [17] and “Non-Toxic” in data set [18]. Also, the inhibition entry (in data set [2]; in the data set with HUVEC [3]; at Histone deacetylase 3; on Histone deacetylase 1 [4]) was “Active” each time. The results for the Flu intensity with K562 [5] and in the data set on K562 [9] were 82.36% and 31.75%, respectively. In addition, the IC50 on Histone deacetylase 2 was 591 nM; in the data set on MCF7, 36 nM; at Histone deacetylase 1 [10], 403 nM; in [14], 459 nM; in the data set with HUVEC [15], 192 nM. Also, the result in the data set on HUVEC [13] was Active. Besides, the inhibition result in the data set on MDA-MB-231 is “Dose-Dependent Effect”.

The term IC50 denotes the concentration that gives 50% inhibition. Lower therefore signals higher potency.
